Data from US20070060595A1, “Novel fused heterocyclic compound and use thereof” (priority 2003, published 2007).

Biological target: recombinant human JNK (JNK1, JNK2)
Test: JNK inhibitory activity, enzyme assay (phosphorylation of biotinylated ATF2, Alpha Screen detection)
Format: biochemical
Details: JNK isoform not stated
Method: 5 μL of kinase buffer (25 mM Tris-HCl (pH 7.5), 5 mM β-glycerophosphoric acid, 2 mM dithiothreitol, 0.1 mM Na3VO4, 10 mM MgCl2) including recombinant human JNK (JNK1: Upstate Biotechnology #14-327, JNK2: Upstate Biotechnology #14-329) was added to well of 384-well plate for fluorescence assay (5 μL) (JNK1: 20 μU/well, JNK2: 50 μU/well). Then, kinase buffer including the compound of the present invention was added into it to carry out incubation for 20 minutes at room temperature. Subsequently, substrate mixture prepared with kinase buffer [biotinylated ATF2 (5 μg/mL) (Upstate Biotechnology #14-432), adenosine triphosphate (JNK1 activity measurement: 2 μmol/L, JNK2 activity measurement: 5 μmol/L) (Cell Signaling Technology #9804), anti-phosphorylated ATF2 antibody (20-fold dilution) (Cell Signaling Technology #9221L)] was added to carry out enzyme reaction for 30 minutes at 30° C. […] The amount of complex between phosphorylated ATF2 and anti-phosphorylated ATF2 was measured with Alpha Screen™ Rabbit Detection Kit (Packard #6760607).
JNK inhibitory activity which is the effect of the compound of the present invention was calculated as inhibition ratio (%) by the following equation: Inhibition ratio(%)=[(AC−AX)/(Ac−AB)]×100
AB: measured value without enzyme;
AC: measured value with enzyme and without a test compound;
AX: measured value with enzyme and a test compound

Row | IC50 [nM] | SMILES
1 | 330 | Clc1cc(NCc2ccc3c(c2)OCO3)n2nccc2n1 [Example 1(1), N-(1,3-benzodioxol-5-ylmethyl)-5-chloropyrazolo[1,5-a]pyrimidin-7-amine]
2 | 740 | COc1cc(CNc2cc(-c3ccsc3)nc3ccnn23)cc(OC)c1OC [Example 3, 5-thien-3-yl-N-(3,4,5-trimethoxybenzyl)pyrazolo[1,5-a]pyrimidin-7-amine]
